# Results published in US11427615B2, “Peptide compound and application thereof, and composition containing peptide compound” (XDCEXPLORER (SHANGHAI) CO., LTD., priority 2017, dated 2022).
# Starred links: 1 amine or outer side, 2 acyl side, 3 side chain; linkers in the order of their positions; H or OH if unused. Positions of bridges follow the written chain, without caps; N, C: chain ends. Non-standard residues stand in square brackets, D forms with d. Residues, ends and D or L forms follow the SMILES beside them. cPrCO(1-aminomethyl) = O=C(C1(CN[*:1])CC1)[*:2]; Phe(4-tBu) = CC(C)(C)c1ccc(C[C@H](N)C(=O)O)cc1; PEG8 = NCCOCCOCCOCCOCCOCCOCCOCCOCCC(=O)O; Phe(4-Cl) = N[C@@H](Cc1ccc(Cl)cc1)C(=O)O; Dip = N[C@H](C(=O)O)C(c1ccccc1)c1ccccc1; Ala(2-furyl) = N[C@@H](Cc1ccco1)C(=O)O; Phe(4-F) = N[C@@H](Cc1ccc(F)cc1)C(=O)O; Phe(4-Me) = Cc1ccc(C[C@H](N)C(=O)O)cc1; Pro(4,4-F2) = O=C(O)[C@@H]1CC(F)(F)CN1; Pro(4R-NH2) = N[C@H]1CN[C@H](C(=O)O)C1; dAla(2-furyl) = N[C@H](Cc1ccco1)C(=O)O; 2Nal = N[C@@H](Cc1ccc2ccccc2c1)C(=O)O; Arg(Me) = CNC(=N)NCCC[C@H](N)C(=O)O; Hyp = O=C(O)[C@@H]1C[C@@H](O)CN1; 3Pal = N[C@@H](Cc1cccnc1)C(=O)O; 2Thi = N[C@@H](Cc1cccs1)C(=O)O; NMeL = CN[C@@H](CC(C)C)C(=O)O; S5 = C=CCCC[C@](C)(N)C(=O)O; Pip = O=C(O)[C@@H]1CCCCN1; Aze = O=C(O)[C@@H]1CCN1; azaGly = NNC(=O)O; βAla = NCCC(=O)O
# Biological target: T1, human kiss1 receptor (GPR54) (Homo sapiens, UniProt Q969F8)
# T1 construct: host or cells: NFAT-bla CHO-K1 cells (Chinese hamster ovary), purchased recombinant cell line
# Assay: Kiss1 receptor (GPR54) binding activity of agonists, FRET detection in NFAT-bla CHO-K1 cells
# Type: cell-based
# Conditions: GPR54; measured according to the method of effect Embodiment 1; preliminary data; read-out: Preliminary measurement data (GPR54) EC50
# T1 sequence (Q969F8 whole entry): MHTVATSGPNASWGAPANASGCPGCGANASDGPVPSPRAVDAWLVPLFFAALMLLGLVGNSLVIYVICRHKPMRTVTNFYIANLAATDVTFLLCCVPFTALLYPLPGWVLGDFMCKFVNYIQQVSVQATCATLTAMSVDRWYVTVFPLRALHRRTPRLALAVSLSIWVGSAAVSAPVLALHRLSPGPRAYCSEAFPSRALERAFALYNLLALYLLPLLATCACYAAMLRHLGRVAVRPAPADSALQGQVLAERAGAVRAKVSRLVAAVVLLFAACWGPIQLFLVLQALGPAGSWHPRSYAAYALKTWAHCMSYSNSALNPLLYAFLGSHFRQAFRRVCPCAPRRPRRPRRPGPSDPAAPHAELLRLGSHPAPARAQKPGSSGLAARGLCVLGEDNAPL
row,Compound,EC50 [pM]
1,"CNC(=N)NCCC[C@H](NC(=O)[C@H](CC(C)C)NC(=O)NNC(=O)[C@H](Cc1ccccc1)NC(=O)[C@@H](NC(=O)[C@H](CC(N)=O)NC(=O)[C@@H]1C[C@@H](O)CN1C(=O)[C@H](Cc1cccnc1)NC(C)=O)[C@@H](C)O)C(=O)N[C@@H](Cc1c[nH]c2ccccc12)C(N)=O [YA-69, Ac-3Pal-Hyp-Asn-Thr-Phe-azaGly-Leu-Arg(Me)-Trp-NH2] (Ac-[3Pal][Hyp]NTF[azaGly]L[Arg(Me)]W-NH2)",300
2,"CNC(=N)NCCC[C@H](NC(=O)[C@H](CC(C)C)NC(=O)NNC(=O)[C@H](Cc1ccccc1)NC(=O)[C@@H](NC(=O)[C@H](CC(N)=O)NC(=O)[C@@H]1C[C@@H](O)CN1C(=O)[C@H](Cc1ccc(F)cc1)NC(C)=O)[C@@H](C)O)C(=O)N[C@@H](Cc1c[nH]c2ccccc12)C(N)=O [YA-71, Ac-Phe(4-F)-Hyp-Asn-Thr-Phe-azaGly-Leu-Arg(Me)-Trp-NH2] (Ac-[Phe(4-F)][Hyp]NTF[azaGly]L[Arg(Me)]W-NH2)",58
3,"CNC(=N)NCCC[C@H](NC(=O)[C@H](CC(C)C)NC(=O)NNC(=O)[C@H](Cc1ccccc1)NC(=O)[C@@H](NC(=O)[C@H](CC(N)=O)NC(=O)[C@@H]1C[C@@H](O)CN1C(=O)[C@H](Cc1ccc(Cl)cc1)NC(C)=O)[C@@H](C)O)C(=O)N[C@@H](Cc1c[nH]c2ccccc12)C(N)=O [YA-72, Ac-Phe(4-Cl)-Hyp-Asn-Thr-Phe-azaGly-Leu-Arg(Me)-Trp-NH2] (Ac-[Phe(4-Cl)][Hyp]NTF[azaGly]L[Arg(Me)]W-NH2)",5550
4,"CNC(=N)NCCC[C@H](NC(=O)[C@H](CC(C)C)NC(=O)NNC(=O)[C@H](Cc1ccccc1)NC(=O)[C@@H](NC(=O)[C@H](CC(N)=O)NC(=O)[C@@H]1C[C@@H](O)CN1C(=O)[C@H](Cc1ccc(OC)cc1)NC(C)=O)[C@@H](C)O)C(=O)N[C@@H](Cc1c[nH]c2ccccc12)C(N)=O [YA-73, Ac-Tyr(Me)-Hyp-Asn-Thr-Phe-azaGly-Leu-Arg(Me)-Trp-NH2] (Ac-Y(Me)[Hyp]NTF[azaGly]L[Arg(Me)]W-NH2)",1320
5,"CNC(=N)NCCC[C@H](NC(=O)[C@H](CC(C)C)NC(=O)NNC(=O)[C@H](Cc1ccccc1)NC(=O)[C@@H](NC(=O)[C@H](CC(N)=O)NC(=O)[C@@H]1C[C@@H](O)CN1C(=O)[C@H](Cc1ccc(C)cc1)NC(C)=O)[C@@H](C)O)C(=O)N[C@@H](Cc1c[nH]c2ccccc12)C(N)=O [YA-74, Ac-Phe(4-Me)-Hyp-Asn-Thr-Phe-azaGly-Leu-Arg(Me)-Trp-NH2] (Ac-[Phe(4-Me)][Hyp]NTF[azaGly]L[Arg(Me)]W-NH2)",921
6,"CNC(=N)NCCC[C@H](NC(=O)[C@H](CC(C)C)NC(=O)NNC(=O)[C@H](Cc1ccccc1)NC(=O)[C@@H](NC(=O)[C@H](CC(N)=O)NC(=O)[C@@H]1C[C@@H](O)CN1C(=O)[C@H](Cc1ccc(C(C)(C)C)cc1)NC(C)=O)[C@@H](C)O)C(=O)N[C@@H](Cc1c[nH]c2ccccc12)C(N)=O [YA-75, Ac-Phe(4-tBu)-Hyp-Asn-Thr-Phe-azaGly-Leu-Arg(Me)-Trp-NH2] (Ac-[Phe(4-tBu)][Hyp]NTF[azaGly]L[Arg(Me)]W-NH2)",18700
7,"CNC(=N)NCCC[C@H](NC(=O)[C@H](CC(C)C)NC(=O)NNC(=O)[C@H](Cc1ccccc1)NC(=O)[C@@H](NC(=O)[C@H](CC(N)=O)NC(=O)[C@@H]1CC(F)(F)CN1C(=O)[C@@H](Cc1ccc(O)cc1)NC(C)=O)[C@@H](C)O)C(=O)N[C@@H](Cc1c[nH]c2ccccc12)C(N)=O [YA-80, Ac-D-Tyr-Pro(diF)-Asn-Thr-Phe-azaGly-Leu-Arg(Me)-Trp-NH2] (Ac-[dY][Pro(4,4-F2)]NTF[azaGly]L[Arg(Me)]W-NH2)",7
8,"CNC(=N)NCCC[C@H](NC(=O)[C@H](CC(C)C)NC(=O)NNC(=O)[C@H](Cc1ccccc1)NC(=O)[C@@H](NC(=O)[C@H](CC(N)=O)NC(=O)[C@@H]1C[C@@H](O)CN1C(=O)[C@@H](Cc1ccc(O)cc1)NC(C)=O)[C@@H](C)O)C(=O)N[C@@H](Cc1ccc2ccccc2c1)C(N)=O [YA-81, Ac-D-Tyr-Hyp-Asn-Thr-Phe-azaGly-Leu-Arg(Me)-2Nal-NH2] (Ac-[dY][Hyp]NTF[azaGly]L[Arg(Me)][2Nal]-NH2)",11
9,"CNC(=N)NCCC[C@H](NC(=O)[C@H](CC(C)C)N(C)C(=O)CCNC(=O)[C@H](Cc1ccccc1)NC(=O)[C@@H](NC(=O)[C@H](CC(N)=O)NC(=O)[C@@H]1C[C@@H](O)CN1C(=O)[C@@H](Cc1ccc(O)cc1)NC(C)=O)[C@@H](C)O)C(=O)N[C@@H](Cc1c[nH]c2ccccc12)C(N)=O [YA-82, Ac-(D-Tyr)-Hyp-Asn-Thr-Phe-BetaAla-(NMe-Leu)-Arg(Me)-Trp-NH2] (Ac-[dY][Hyp]NTF[βAla][NMeL][Arg(Me)]W-NH2)",2790
10,"CNC(=N)NCCC[C@H](NC(=O)[C@H](CC(C)C)NC(=O)NNC(=O)[C@H](Cc1ccccc1)NC(=O)[C@@H](NC(=O)[C@H](CC(N)=O)NC(=O)[C@@H]1C[C@@H](N)CN1C(=O)[C@@H](Cc1ccc(O)cc1)NC(C)=O)[C@@H](C)O)C(=O)N[C@@H](Cc1c[nH]c2ccccc12)C(N)=O [YA-83, Ac-D-Tyr-Pro(4-NH2)-Asn-Thr-Phe-azaGly-Leu-Arg(Me)-Trp-NH2] (Ac-[dY][Pro(4R-NH2)]NTF[azaGly]L[Arg(Me)]W-NH2)",8
11,"CNC(=N)NCCC[C@H](NC(=O)[C@H](CC(C)C)NC(=O)NNC(=O)[C@H](Cc1ccccc1)NC(=O)[C@@H](NC(=O)[C@H](CC(N)=O)NC(=O)[C@@H]1CCCCN1C(=O)[C@@H](Cc1ccc(O)cc1)NC(C)=O)[C@@H](C)O)C(=O)N[C@@H](Cc1c[nH]c2ccccc12)C(N)=O [YA-85, Ac-D-Tyr-(S-Pip)-Asn-Thr-Phe-azaGly-Leu-Arg(Me)-Trp-NH2] (Ac-[dY][Pip]NTF[azaGly]L[Arg(Me)]W-NH2)",26
12,"CNC(=N)NCCC[C@H](NC(=O)[C@H](CC(C)C)NC(=O)NNC(=O)[C@H](Cc1ccccc1)NC(=O)[C@@H](NC(=O)[C@H](CC(N)=O)NC(=O)[C@@H]1C[C@@H](O)CN1C(=O)[C@@H](NC(C)=O)C(c1ccccc1)c1ccccc1)[C@@H](C)O)C(=O)N[C@@H](Cc1c[nH]c2ccccc12)C(N)=O [YA-132, Ac-Ala(dip)-Hyp-Asn-Thr-Phe-azaGly-Leu-Arg(Me)-Trp-NH2] (Ac-[Dip][Hyp]NTF[azaGly]L[Arg(Me)]W-NH2)",190
13,"CNC(=N)NCCC[C@H](NC(=O)[C@H](CC(C)C)NC(=O)NNC(=O)[C@H](Cc1ccccc1)NC(=O)[C@H](Cc1ccco1)NC(=O)[C@H](CC(N)=O)NC(=O)[C@@H]1C[C@@H](O)CN1C(=O)[C@@H](Cc1ccc(O)cc1)NC(C)=O)C(=O)N[C@@H](Cc1c[nH]c2ccccc12)C(N)=O [YA-143, Ac-D-Tyr-Hyp-Asn-2Fua-Phe-azaGly-Leu-Arg(Me)-Trp-NH2] (Ac-[dY][Hyp]N[Ala(2-furyl)]F[azaGly]L[Arg(Me)]W-NH2)",23
14,"CNC(=N)NCCC[C@H](NC(=O)[C@H](CC(C)C)NC(=O)NNC(=O)[C@H](Cc1ccccc1)NC(=O)[C@H](Cc1cccs1)NC(=O)[C@H](CC(N)=O)NC(=O)[C@@H]1C[C@@H](O)CN1C(=O)[C@@H](Cc1ccc(O)cc1)NC(C)=O)C(=O)N[C@@H](Cc1c[nH]c2ccccc12)C(N)=O [YA-144, Ac-(D-Tyr)-Hyp-Asn-Thi-Phe-azaGly-Leu-Arg(Me)-Trp-NH2] (Ac-[dY][Hyp]N[2Thi]F[azaGly]L[Arg(Me)]W-NH2)",201
15,"CNC(=N)NCCC[C@H](NC(=O)[C@H](CC(C)C)NC(=O)NNC(=O)[C@H](Cc1ccccc1)NC(=O)[C@@H](NC(=O)[C@H](CC(N)=O)NC(=O)C1(CNC(=O)[C@@H](Cc2ccc(O)cc2)NC(C)=O)CC1)[C@@H](C)O)C(=O)N[C@@H](Cc1c[nH]c2ccccc12)C(N)=O [YA-145, Ac-D-Tyr-ACPA-Asn-Thr-Phe-azaGly-Leu-Arg(Me)-Trp-NH2] (Ac-[dY][cPrCO(1-aminomethyl)]NTF[azaGly]L[Arg(Me)]W-NH2)",34
16,"CC(=O)N[C@@H](Cc1ccc(O)cc1)C(=O)N[C@@H](CC(N)=O)C(=O)N[C@@H](Cc1c[nH]c2ccccc12)C(=O)N[C@@]1(C)CCCC=CCCC[C@@](C)(C(=O)N[C@@H](CCCNC(=N)N)C(=O)N[C@@H](Cc2ccccc2)C(N)=O)NC(=O)CNC(=O)[C@H](Cc2ccccc2)NC(=O)[C@H](CO)NC1=O [YA-146, Ac-Tyr-Asn-Trp-X-Ser-Phe-Gly-X-Arg-Phe-NH2 (stapled)] (Ac-YNW[S5]SFG[S5]RF-NH2; staple 4-8)",545000
17,"CNC(=N)NCCC[C@H](NC(=O)[C@H](CC(C)C)NC(=O)NNC(=O)[C@H](Cc1ccccc1)NC(=O)[C@@H](NC(=O)[C@H](CC(N)=O)NC(=O)[C@@H]1C[C@@H](O)CN1C(=O)[C@@H](Cc1ccc(O)cc1)NC(=O)CCOCCOCCOCCOCCOCCOCCOCCOCCNC(C)=O)[C@@H](C)O)C(=O)N[C@@H](Cc1c[nH]c2ccccc12)C(N)=O [YA-151, Ac-PEG8-(D-Tyr)-Hyp-Asn-Thr-Phe-azaGly-Leu-Arg (Me)-Trp-NH2] (Ac-[PEG8][dY][Hyp]NTF[azaGly]L[Arg(Me)]W-NH2)",45
18,"CNC(=N)NCCC[C@H](NC(=O)[C@H](CC(C)C)NC(=O)[C@@H]1CCN1C(=O)[C@H](Cc1ccccc1)NC(=O)[C@@H](NC(=O)[C@H](CC(N)=O)NC(=O)[C@@H]1C[C@@H](O)CN1C(=O)[C@@H](Cc1ccc(O)cc1)NC(C)=O)[C@@H](C)O)C(=O)N[C@@H](Cc1c[nH]c2ccccc12)C(N)=O [YA-153, Ac-D-Tyr-Hyp-Asn-Thr-Phe-Aze-Leu-Arg(Me)-Trp-NH2] (Ac-[dY][Hyp]NTF[Aze]L[Arg(Me)]W-NH2)",180
19,"CCCCCCCCCCCCCCCC(=O)NCCOCCOCCOCCOCCOCCOCCOCCOCCC(=O)NCC(=O)NCC(=O)N[C@@H](Cc1ccc(O)cc1)C(=O)N[C@@H](CC(N)=O)C(=O)N[C@@H](Cc1c[nH]c2ccccc12)C(=O)N[C@@H](CC(N)=O)C(=O)N[C@@H](CO)C(=O)N[C@@H](Cc1ccccc1)C(=O)NCC(=O)N[C@@H](CC(C)C)C(=O)N[C@@H](CCCNC(=N)N)C(=O)N[C@@H](Cc1ccccc1)C(N)=O [YA-158, Palm-PEG8-Gly-Gly-Tyr-Asn-Trp-Asn-Ser-Phe-Gly-Leu-Arg-Phe-NH2]",47.8
20,"CNC(=N)NCCC[C@H](NC(=O)[C@H](CC(C)C)N(C)C(=O)CCNC(=O)[C@H](Cc1ccccc1)NC(=O)[C@@H](NC(=O)[C@H](CC(N)=O)NC(=O)[C@@H]1C[C@@H](O)CN1C(=O)[C@@H](Cc1ccco1)NC(C)=O)[C@@H](C)O)C(=O)N[C@@H](Cc1c[nH]c2ccccc12)C(N)=O [YA-164, Ac-[3-(2-furyl)-D-Ala]-Hyp-Asn-Thr-Phe-BetaAla-(NMe-Leu)-Arg(Me)-Trp-NH2] (Ac-[dAla(2-furyl)][Hyp]NTF[βAla][NMeL][Arg(Me)]W-NH2)",1750
